The results in this text go back to US20240287136A1, “PHARMACEUTICAL COMPOSITION AND THE USE THEREOF IN THE TREATMENT OF AUTOIMMUNE DISEASES” (Singapore Health Services Pte. Ltd., priority 2016, published 2024).

Ends that are not written are not given here.

For assay [1], the system named is peripheral blood mononuclear cells (PBMCs). In words: Immune deviation in PBMCs of trial patients (cytokine production, PD-1 expression). It is filed as in vivo, human. Conditions: for production of interleukin 10 (IL-10) / production of tumor necrosis factor α (TNFα): PBMCs / T cell subset of treated patients; for expression of Programmed Death 1 (PD-1) in PBMC: clinical responders, data not shown. On the procedure: The model employed here is based on the hypothesis that immune tolerization to a T-cell epitope, such as SEQ ID NO. 1 that may be a contributor of inflammation in patients with rheumatoid arthritis, may lead to detectable clinical improvement. A total of 96 patients with early rheumatoid arthritis, who were not allowed on Methotrexate or biologics, were tested with mucosal tolerization to SEQ ID NO. 1. Patients are defined as “responders” if they meet the response criteria at any time during the study. […] SEQ ID NO.
1 (herein dubbed clinical responders) was observed (data not shown). PD-1 was first described as a contributor to T-cell anergy and exhaustion in chronic viral infections and cancer.
It is established that SEQ ID NO: 1 treatment was associated with an immune deviation in the T cell subset characterized by a decrease and an increase in tumor necrosis factor α (TNFα) and IL-10, respectively.

Assay [2] relates to effector T cells (Teff) (CD4+CD127+). In words: FACS of effector T cells of trial patients (PD-1, intracellular IL-17A, IL-23 receptor). It is filed as in vivo, human. On the procedure: (§1) FIG. 3. Effector and regulatory T cell function differ according to clinical response: a. effector T cells (Teff) (CD4+CD127+) at beginning of the trial (TO) and end of the study (Tend) were compared for PD-1 expression in both SEQ ID NO. 1 clinical responders and placebo clinical non-responders by FACS. b. FACS-sorted Teffwere analyzed for IL-17 and for RORC. Teff were stained intracellularly with IL-17A, and analyzed by FACS. c. regulatory T cell (Treg) (CD4+CD25++CD127−) frequency (% of PBMC) was determined in SEQ ID NO. 1—treated clinical responders by FACS. […] Values are the mean and s.e.m. d. Treg functionality in SEQ ID NO. […] (placebo clinical non-responders vs SEQ ID NO. 1 clinical responders, —76.21+/−3.665 vs 8.443+/−4.677, n=2 vs 3, t-test p0.0010). Values are the mean and s.e.m.
Therefore, a first hypothesis to test here is whether CD4+/CD127+T effector (Teff) cell anergy was induced by treatment with SEQ ID NO. 1. […] In addition, Teff were able to proliferate to conventional polyclonal stimuli (data not shown).
Further analysis of Teff in SEQ ID NO. […] Conversely, an increased expression in IL-17A expression was detected in placebo—treated clinical non-responders. […] 1 induced an immune deviation of Teff with a reduction in the ability to produce pro-inflammatory cytokines.
(§2) In FIG. 3b Y axis: % net change between Tend and T0 for both Teff producing IL-17A (first two columns, measured by FACS) and RORC expression (measured by TaqMan). […] Results were analyzed as a percentage of GAPDH. […] Values are the mean and s.e.m.

Assay [3] has the same test system. In words: Gene expression in FACS-sorted Teff of trial patients (TaqMan). The assay is classed as in vivo, human. On the procedure: as §1, §2
Successful treatment with SEQ ID NO: 1 therefore induced an immune deviation of Teff cells by reducing their ability to produce pro-inflammatory cytokines. An increase in the number of Treg cells could be one possible explanation for this observation.

Assay [4] relates to Treg (CD4+CD25++CD127−) cells. Briefly: PD-1 expression on Treg by FACS after incubation with SEQ ID NO. 1. It is filed as cell-based, human. The following applies: after incubation with 10 mg/ml of SEQ ID NO. 1. On the procedure:
(§3) FIG. 5. PD-1 actively contributes to Treg function: a. Treg ability to suppress Teff proliferation was determined by CFSE dilution. A representative clinical responder is depicted. Treg cells were sorted by FACS according to the phenotype depicted in the table and incubated with Teff in the presence of 10 mg/ml of SEQ ID NO. 1. b. […] 1. c. […] 1. Line with white area under the curve depicts T0, grey area depicts Tend. T(x)=Probability binning. % PD-1+Treg is expressed as percentage of the total Treg population (insets in both panels). d. […] PD-1+Treg cells were stained by FACS after a 5-day incubation with Teff and APC in the presence or absence of anti-PD1 antibody. Details in methods. Line with white area under the curve depicts anti-PD1 treated, grey area depicts untreated. T(x)=Probability binning. e. pSTAT5 was examined in Treg via immunofluorescent microscopy. Cells, staining and slides were prepared according to procedures outlined in the methods. The average pSTAT5 expression per cell for anti-PD-1 treatment, as determined by the average integral density per unit area, was calculated using ImageJ (Rasband, W. S., ImageJ, http://rsb.info.nih.gov/ij/, 1997-2009). Untreated vs. anti-PD-1 treated: 38.79 vs. 33.07, standard deviation 4.27 vs. […], t-test p<0.0001. f. […] Teff were stained by FACS after a 5-day incubation in the presence or absence of anti-PD1 antibody. Details in methods. Line with white area under the curve depicts anti-PD1 treated, grey area depicts untreated. T(x)=Probability binning. g. Total Treg, PD-1+Treg and PD-1− Treg from clinical responders (n=S) at Tend were sorted and RNA expression of CTLA-4, FoxP3, IL-10 and TGF-β was measured by TaqMan. Data are expressed as 2(−dCT)×100 of GAPDH. […] 1 clinical responders (18.99+/−3.412 vs 2.693+/−1.434, n=S p=0.0130).

The subject of a further assay is PD-1+Treg and PD-1− Treg. Briefly: TaqMan RNA expression in sorted total, PD-1+ and PD-1− Treg of clinical responders. The assay is classed as in vivo, human. Conditions: SEQ ID NO. 1 clinical responders at Tend. On the procedure: as §3
To further characterize function of PD-1+Treg, mRNA was extracted from FACS-sorted CD4+/CD25++/CD127−total Treg, PD-1+Treg and PD-1-Treg and tested by qPCR for expression of various genes associated with Treg function.

Assay [5] relates to CD4+FoxP3+Tregs and CD4+CD45RO+memory T cells. Briefly: Cluster analysis and manual gating of Treg and memory T cell compartments of trial patients. It is filed as in vivo, human. The text has this: Cluster analysis of the immune profiles of healthy individuals and rheumatoid arthritis patients reveal profound perturbations in the various immune cell compartments (FIG. 8). Immune tolerization achieved with SEQ ID NO: 1 treatment reshapes the immunomes of rheumatoid patients (FIG. 8B). The underlying immunological mechanisms behind immune tolerization was investigated by utilising staining panels for surface and activation markers on T cells (FIG. 13).
Immune phenotypes enriched in this cell subset of SEQ ID NO: 1 responders were memory T cells displaying activation and tolerogenic characteristics (FIG. 11B).

Setting [6] is: responders, end of the treatment regime (FIG. 9A).

Regarding QKRAAYDQYGHAAFE-NH2 [SEQ ID NO. 1], in assay [1], the “production of interleukin 10 (IL-10)” value is given as “increased production”, the “production of tumor necrosis factor α (TNFα)” value is on record as “decreased production” and the “expression of Programmed Death 1 (PD-1) in PBMC” value is listed as “significantly higher expression”. Moreover, in assay [1] (listed as SEQ ID NO: 1), the “production of interleukin 10 (IL-10)” value was “increase”, the “production of tumor necrosis factor α (TNFα)” value is reported as “decrease” and the “expression of Programmed Death 1 (PD-1) in PBMC” value is reported as “significantly higher levels”. Besides, the “IL-23 receptor expression in Teff” value in assay [2] (SEQ ID NO. 1-treated clinical responders, not shown) was “decrease”. In addition, the “Intracellular IL-17A expression in Teff cells” value in assay [2] (clinical responders, Tend, T0 8.003+/−0.07839%, n=3, mean and s.e.m.) is 4.873+/−0.6933%. The “% of PD-1+ in the total Teff population” value in assay [2] (clinical responders, end of trial (Tend), T0 6.312+/−1.428, n=5, mean+/−s.e.m.) was 4.930+/−1.433%. In addition, the “RORC gene expression in Teff” value in assay [3] (clinical responders, Tend, T0 3.382+/−0.684, mean and s.e.m.) is 1.670+/−0.714 percentage of GAPDH. Further, in assay [3] (setting [6]), the “IFNγ expression in CD4+Teff cells” value is listed as “significantly lower levels” and the “IL-17A expression in CD4+Teff cells” value is reported as “significantly lower levels”. The “PD-1+ Treg as percentage of total Treg” value in assay [4] (clinical responder, T0) is given as 13.3%. The “PD-1+ Treg as percentage of total Treg” value in assay [4] (clinical responder, Tend) is reported as 41%. The “PD-1+ Treg as percentage of total Treg” value in assay [4] (representative clinical non-responder, T0) came to 15.5%. In assay [4] (representative clinical non-responder, Tend), the “PD-1+ Treg as percentage of total Treg” value is recorded as 12.7%. Moreover, in the assay on PD-1+Treg and PD-1− Treg, the “CTLA-4, FoxP3 and IL-10 expression between the different subsets of Treg” value is reported as “did not differ”; the “TGF-β gene expression in PD-1+Treg” value is recorded as 18.99+/−3.412 2(−dCT)×100 of GAPDH; the “TGF-β gene expression in PD-1− Treg” value was 2.693+/−1.434 2(−dCT)×100 of GAPDH. In assay [5] (SEQ ID NO: 1 responders versus placebo non-responders (FIG. 8E)), the “percentage of CD4+FoxP3+Tregs expressing GITR, PD-1 and HLA-DR” value is given as “higher percentage”. Besides, the “proportion of CD4+CD45RO+memory T cells activated and regulatory (CD69 and TGFβ expression)” value in assay [5] (SEQ ID NO: 1 responders versus placebo non-responders (FIG. 11C)) is “larger proportion”.
